Like-named read-outs stand apart in the source and are kept apart here.
Legend:
Pseudomonas aeruginosa = assay: Zones of inhibition of treated catheter segments on seeded trypticase soy agar plates, 24 hours
S. epidermidis [1] = assay type: cell-based, Staphylococcus epidermidis
S. epidermidis [2] = assay: Minimum inhibitory concentration in Trypticase Soy Broth, synergy (fractional inhibitory concentration); assay type: cell-based, Staphylococcus epidermidis
[3] = tetrahydrofuran/methanol solvent systems
[4] = 10-20 passages, inoculum 10^4 cfu/ml
[5] = catheter treated with 2% bismuth salt
[6] = catheter treated with 2% bismuth salt + 3% minocycline
[7] = 10 transfers, inoculum 10^6 cfu/ml

Compound | Zones of Inhibition Against Pseudomonas aeruginosa (mm) 2% Bismuth Salt (Pseudomonas aeruginosa) [mm] | Zones of Inhibition Against Pseudomonas aeruginosa (mm) 2% Bismuth Salt + 3% Minocycline (Pseudomonas aeruginosa) [mm] | INCREASE IN MIC (fold) (S. epidermidis [1]; [4]) | further results
O=C([O-])c1ccccc1.O=C([O-])c1ccccc1.O=C([O-])c1ccccc1.[Bi+3] [Bismuth benzoate, bismuth benzoate] | 0 | 18 |  | 
CO[C@H]1/C=C/O[C@@]2(C)Oc3c(C)c(O)c4c(O)c(c(/C=N/N5CCN(C)CC5)c(O)c4c3C2=O)NC(=O)/C(C)=C\C=C\[C@H](C)[C@H](O)[C@@H](C)[C@@H](O)[C@@H](C)[C@H](OC(C)=O)[C@@H]1C [Rifampin (R), rifampin] |  |  | 25,000 fold | 
bismuth mandelate | 0 | 18.5 |  | 
bismuth salicylate | 0 | 17 |  | 
CC(=O)O.CC(=O)O.NC(=N\CCCCCC/N=C(N)/N=C(\N)Nc1ccc(Cl)cc1)/N=C(\N)Nc1ccc(Cl)cc1 [Chlorhexidine (CHX), chlorhexidine diacetate] |  |  |  | MIC (S. epidermidis [2]; inoculum of 10^4 cfu/ml): 0.5 µg/mL; INCREASE IN MIC (fold) (S. epidermidis [1]): 2 fold; MIC (μg/ml) AFTER PASSAGE (S. epidermidis [1]): 1.0 µg/mL; MIC (μg/ml) BEFORE PASSAGE (S. epidermidis [1]): 0.5 µg/mL
NC[C@H]1O[C@H](O[C@H]2[C@H](O)[C@@H](O[C@H]3O[C@H](CO)[C@@H](O)[C@H](N)[C@H]3O)[C@H](N)C[C@@H]2N)[C@H](N)C[C@@H]1O [Tobramycin (Tb), tobramycin] |  |  | 20 fold | 
O=[N+]([O-])[O-].O=[N+]([O-])[O-].O=[N+]([O-])[O-].[Bi+3] [Bismuth Nitrate, bismuth nitrate] |  |  |  | Zones of Inhibition Against Pseudomonas aeruginosa (mm) 2% Bismuth Salt (Pseudomonas aeruginosa; [5]): 0 mm; Zones of Inhibition Against Pseudomonas aeruginosa (mm) 2% Bismuth Salt + 3% Minocycline (Pseudomonas aeruginosa; [6]): 15 mm
polyhexamethylenebiguanide [PHMB] |  |  |  | INCREASE IN MIC (fold) (S. epidermidis [1]): 1.0 fold; MIC (μg/ml) AFTER PASSAGE (S. epidermidis [1]): 0.31 µg/mL; MIC (μg/ml) BEFORE PASSAGE (S. epidermidis [1]): 0.31 µg/mL
CN(C)c1ccc(O)c2c1C[C@H]1C[C@H]3[C@H](N(C)C)C(O)=C(C(N)=O)C(=O)[C@@]3(O)C(O)=C1C2=O [Minocycline (M), minocycline] |  |  | 2 fold | INCREASE IN MIC (fold) (S. epidermidis [1]; [7]): 4 fold
CC(=O)[O-].CC(=O)[O-].CC(=O)[O-].[Bi+3] [Bismuth acetate, bismuth acetate] | 0 | 17 |  | 
bismuth sulfadiazine |  |  |  | Zones of Inhibition Against Pseudomonas aeruginosa (mm) 2% Bismuth Salt (Pseudomonas aeruginosa; [5]): 6.5 mm; Zones of Inhibition Against Pseudomonas aeruginosa (mm) 2% Bismuth Salt + 3% Minocycline (Pseudomonas aeruginosa; [6]): 15.5 mm
O=C([O-])CC(O)(CC(=O)[O-])C(=O)[O-].[Bi+3] [Bismuth citrate, bismuth citrate] | 0 | 17 |  | 
[Bi+3].[O-]B([O-])[O-] [Bismuth borate, bismuth borate] | 0 | 13 |  | 
Oc1cc(Cl)ccc1Oc1ccc(Cl)cc1Cl [Triclosan (T), triclosan] |  |  | 7 fold | MIC (S. epidermidis [2]; Staphylococcus epidermidis, 24 h): 0.35 µg/mL; INCREASE IN MIC (fold) (S. epidermidis [1]; [7]): 7 fold
CCn1cc(C(=O)O)c(=O)c2cc(F)c(N3CCNCC3)cc21 [Norfloxacin (Nf), norfloxacin] |  |  | 40 fold | upper limit incorporated (low solubility in tetrahydrofuran/methanol) [3]: about 0.5 percent (w/v)
bismuth palmitate | 0 | 18.5 |  | 

Source: patent US6582719B2, “Combinations of antiseptic and antibiotic agents that inhibit the development of resistant microorganisms” (priority 2001, dated 2003)
